Reference: ChEMBL document CHEMBL2074465, “Nonsteroidal anti-inflammatory drugs efficiently reduce the transport and cytotoxicity of adefovir mediated by the human renal organic anion transporter 1” (J Pharmacol Exp Ther, 2000)

Target: T1, Solute carrier family 22 member 6 (Homo sapiens, UniProt Q4U2R8)
T1 sequence (Q4U2R8 whole entry): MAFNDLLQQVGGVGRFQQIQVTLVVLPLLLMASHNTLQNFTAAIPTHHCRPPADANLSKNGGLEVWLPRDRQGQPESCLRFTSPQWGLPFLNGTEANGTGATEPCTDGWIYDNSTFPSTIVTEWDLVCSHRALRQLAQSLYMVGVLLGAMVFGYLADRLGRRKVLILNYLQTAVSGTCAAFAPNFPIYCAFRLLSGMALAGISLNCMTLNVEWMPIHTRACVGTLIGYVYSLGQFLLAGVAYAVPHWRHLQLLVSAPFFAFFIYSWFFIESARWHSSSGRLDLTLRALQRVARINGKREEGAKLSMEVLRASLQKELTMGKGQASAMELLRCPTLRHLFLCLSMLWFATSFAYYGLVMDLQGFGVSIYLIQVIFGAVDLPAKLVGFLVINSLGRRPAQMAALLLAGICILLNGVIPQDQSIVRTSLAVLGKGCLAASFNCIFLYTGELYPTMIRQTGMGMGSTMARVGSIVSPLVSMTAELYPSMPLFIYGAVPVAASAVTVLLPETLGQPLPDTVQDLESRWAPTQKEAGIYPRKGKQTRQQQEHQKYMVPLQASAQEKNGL
Experiment: TP_TRANSPORTER: uptake in OAT1-expressing CHO cells
Format: functional, cell-based
Conditions: hamster

Activity: is not a substrate [-]
SMILES: CC(C(=O)O)c1cccc(C(=O)c2ccccc2)c1 (stereo unspecified) [KETOPROFEN]
